The supplement of paper PMC10307832

Experiments:
Assay in all cases: relative viability (nuclei count vs DMSO), 5 days (fraction); higher = more cells survive
Decitabine + Crizotinib = compound: Nc1ncn([C@H]2C[C@H](O)[C@@H](CO)O2)c(=O)n1 [Decitabine] + C[C@@H](Oc1cc(-c2cnn(C3CCNCC3)c2)cnc1N)c1c(Cl)ccc(F)c1Cl [Crizotinib] (partner 1 µM)
Summary of the method: (§1)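 Dosing by pin tool came one day after lung cancer cell lines were seeded in 1536-well plates, using either one drug or a fixed anchor-drug dose plus five library-drug doses (not always all listed) in √10 steps. After 5 days, nuclei were counted on 4× images. Relative viability is treated-well nuclei count divided by vehicle-well nuclei count, and values are medians of duplicate plates.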

Cediranib + Tozasertib = compound: COc1cc2c(Oc3ccc4[nH]c(C)cc4c3F)ncnc2cc1OCCCN1CCCC1 [Cediranib] + Cc1cc(Nc2cc(N3CCN(C)CC3)nc(Sc3ccc(NC(=O)C4CC4)cc3)n2)n[nH]1 [Tozasertib] (partner 0.1 µM)
Summary of the method: as §1

Decitabine + Bortezomib = compound: Nc1ncn([C@H]2C[C@H](O)[C@@H](CO)O2)c(=O)n1 [Decitabine] + CC(C)C[C@H](NC(=O)[C@H](Cc1ccccc1)NC(=O)c1cnccn1)B(O)O [Bortezomib] (partner 0.002 µM)
Summary of the method: as §1

[1] = compound: O=C(C[C@H]1NCCC[C@@H]1O)Cn1cnc2cc(Br)c(Cl)cc2c1=O (racemic) [Halofuginone] + O=C(CCCCCCC(=O)Nc1ccccc1)NO [Vorinostat] (partner 1 µM)
Summary of the method: as §1

Cell Line | relative viability (Decitabine + Crizotinib; first compound 0.04 µM) | relative viability (Decitabine + Crizotinib; first compound 0.1265 µM) | relative viability (Decitabine + Crizotinib; first compound 0.4 µM) | relative viability (Decitabine + Crizotinib; first compound 1.265 µM) | relative viability (Decitabine + Crizotinib; first compound 4 µM) | relative viability (Cediranib + Tozasertib; first compound 0.04 µM) | relative viability (Cediranib + Tozasertib; first compound 0.1265 µM) | relative viability (Cediranib + Tozasertib; first compound 0.4 µM) | relative viability (Cediranib + Tozasertib; first compound 1.265 µM) | relative viability (Cediranib + Tozasertib; first compound 4 µM) | relative viability (Decitabine + Bortezomib; first compound 0.04 µM) | relative viability (Decitabine + Bortezomib; first compound 0.1265 µM) | relative viability (Decitabine + Bortezomib; first compound 0.4 µM) | relative viability (Decitabine + Bortezomib; first compound 1.265 µM) | relative viability (Decitabine + Bortezomib; first compound 4 µM) | relative viability ([1]; first compound 0.001 µM) | relative viability ([1]; first compound 0.003162 µM) | relative viability ([1]; first compound 0.01 µM) | relative viability ([1]; first compound 0.03162 µM) | relative viability ([1]; first compound 0.1 µM)
LOU-NH91 | 0.509 | 0.683 | 0.615 | 0.613 | 0.656 | 0.473 | 0.67 | 0.646 | 0.708 | 0.658 | 0.412 | 0.471 | 0.436 | 0.512 | 0.523 | 0.929 | 0.955 | 0.898 | 0.907 | 0.779
LU99A | 0.517 | 0.491 | 0.631 | 0.439 | 0.317 | 0.292 | 0.285 | 0.285 | 0.286 | 0.292 | 1.06 | 1.26 | 1.31 | 0.989 | 0.949 | 0.482 | 0.578 | 0.51 | 0.479 | 0.453
LXF-289 | 0.579 | 0.557 | 0.432 | 0.341 | 0.308 | 0.231 | 0.219 | 0.212 | 0.212 | 0.2 | 0.775 | 0.714 | 0.503 | 0.347 | 0.324 | 0.709 | 0.829 | 0.728 | 0.763 | 0.686
NCI-H23 | 0.338 | 0.373 | 0.21 | 0.175 | 0.163 | 0.43 | – | 0.365 | 0.399 | 0.395 | 0.571 | 0.493 | 0.307 | 0.216 | 0.233 | 0.664 | 0.521 | 0.559 | 0.553 | 0.534
NCI-H322M | 0.724 | 0.661 | 0.673 | 0.36 | 0.363 | 0.484 | 0.564 | 0.473 | 0.424 | 0.486 | 1.18 | 1.06 | 0.716 | 0.699 | 0.479 | 0.935 | 0.967 | 0.811 | 0.865 | 0.561
NCI-H441 | 0.361 | 0.224 | 0.223 | 0.188 | 0.184 | 0.787 | – | 0.545 | 0.55 | 0.677 | 0.228 | 0.26 | 0.231 | 0.198 | 0.198 | 0.799 | 0.936 | 0.863 | 0.8 | 0.49
NCI-H460 | 0.524 | 0.623 | 0.22 | 0.186 | 0.126 | 0.494 | 0.391 | 0.429 | 0.603 | 0.355 | 0.909 | 0.991 | 0.811 | 0.35 | 0.272 | 0.675 | 0.756 | 0.744 | 0.495 | 0.176
NCI-H520 | 0.654 | 0.544 | 0.399 | 0.308 | 0.26 | 0.57 | 0.35 | 0.543 | – | 0.426 | 0.628 | 0.595 | 0.374 | 0.297 | 0.221 | 0.644 | 0.711 | 0.551 | 0.612 | 0.309
NCI-H596 | 0.939 | 1.02 | 0.353 | 0.772 | 0.755 | 1.13 | 0.891 | 0.782 | – | 0.986 | 1.02 | 0.873 | 0.845 | 0.847 | 0.855 | 0.628 | 0.502 | 0.58 | 0.648 | 0.562
NCI-H647 | 0.852 | 0.704 | 0.549 | 0.211 | 0.174 | 0.306 | 0.225 | 0.3 | 0.227 | 0.255 | 0.728 | 0.821 | 0.344 | 0.241 | 0.209 | 0.833 | 0.499 | 0.489 | 0.453 | 0.103
NCI-H650 | 0.533 | 0.524 | 0.303 | 0.264 | 0.195 | 0.739 | 0.563 | 0.709 | 0.774 | 0.707 | 0.509 | 0.534 | 0.227 | 0.294 | 0.223 | 0.792 | 0.537 | 0.5 | 0.376 | 0.355
NCI-H661 | 0.929 | 0.945 | 0.918 | 0.619 | 0.523 | 0.255 | 0.365 | 0.338 | 0.349 | 0.372 | 0.688 | 0.61 | 0.459 | 0.339 | 0.332 | 0.773 | 0.803 | 0.682 | 0.549 | 0.491
NCI-H727 | 0.711 | 0.513 | 0.537 | 0.341 | 0.33 | – | 0.591 | 0.536 | 0.762 | 0.549 | 0.697 | 0.672 | 0.382 | 0.605 | 0.418 | 1.23 | 1.05 | 1.06 | 1.35 | 1.21
NCI-H838 | 0.389 | 0.314 | 0.228 | 0.248 | 0.2 | 0.272 | 0.264 | 0.229 | 0.297 | 0.276 | 0.528 | 0.381 | 0.293 | 0.296 | 0.243 | 0.752 | 0.746 | 0.703 | 0.507 | 0.16
NCI-H1355 | 0.642 | 0.495 | 0.413 | 0.29 | 0.281 | 0.548 | 0.684 | 0.482 | 0.564 | 0.492 | 0.826 | 0.583 | 0.517 | 0.305 | 0.297 | 0.688 | 0.648 | 0.596 | 0.663 | 0.561
NCI-H1437 | 0.692 | 0.748 | 0.632 | 0.297 | 0.216 | 0.434 | 0.426 | 0.365 | 0.412 | 0.421 | 0.38 | 0.324 | 0.313 | 0.221 | 0.203 | 0.965 | 0.886 | 0.772 | 0.747 | 0.501
